Test results as given in ChEMBL document CHEMBL3112566, “Thiazolopyridone ureas as DNA gyrase B inhibitors: optimization of antitubercular activity and efficacy” (Bioorg Med Chem Lett, 2014).

Assay: AUC in mouse at 300 mg/kg, po
Type: ADME, organism-based
Set-up: dose 300 mg/kg, route oral
Conditions: plasma

CCNC(=O)Nc1nc2cc(-c3cccnc3)c(=O)n(C(C)C)c2s1
AUC: 981 µM·h
